Measured values published in article PMC7822474, “Repurposing the McoTI-II Rigid Molecular Scaffold in to Inhibitor of ‘Papain Superfamily’ Cysteine Proteases” (Pharmaceuticals, 2020).
Blank lines part the entries; values can stand above or below the molecule they belong to. Where no end group is shown, it is not given here.

Columns and labels:
[1] = tested on: trypsin; experiment: Inhibition of trypsin by recombinant McoTI-II (ZFR-AMC substrate); type: biochemical
[2] = tested on: trypsin; details: cited from earlier work
From the text: McoTI-II is a stable cyclic peptide found in seeds of the plant Momordica cochinchinensis. It belongs to the trypsin inhibitor subfamily of cyclotides and has been the most preferred framework for grafting and engineering novel biological activities. […] A range of substitutions in the trypsin inhibitory reactive site (loop 1) and the P1 residue have been used to develop a series of McoTI-I analogs with specificity towards alternate proteases with moderate affinity. […] Therefore, we expect that a modification involving a backbone cyclization would lead to further improvement in the e ...

[3] = biological target: trypsin
[4] = tested on: papain; details: E-64 and its derivatives; cited from earlier work
[5] = tested on: papain; experiment: Proteolytic activity assay, BSA digestion by papain on SDS-PAGE; type: biochemical; details: BSA 1.0 mg/mL, 0.1 M sodium acetate pH 5.5, 0.1% SDS, E:S 1:10, 40 °C, 8 min, preincubated with papain
Procedure: The protein substrate, BSA, at a concentration of 1.0 mg/mL in 0.1 M sodium acetate buffer (pH 5.5) containing 0.1% SDS was incubated with papain, papain preincubated with E-64, and papain preincubated with Mco-CPI protein. The papain enzyme used was pre-activated with 2 mM dithiothreitol. The ratio of enzyme to the substrate (E:S) was maintained at 1:10. The digestion was allowed to be carried at 40 °C for 8 min. This method was adapted from Zucker et al., 1985 [59]. The degradation products of each reaction were analysed on 12% SDS-PAGE gel.

IC50 ([1]; ZFR-AMC substrate, 50 mM Tris-HCl pH 8.0, 50 mM NaCl, 5 mM CaCl2, three technical replicates, read-out: IC50 against trypsin): 2.12 µM
Molecule: McoTI-II recombinant protein: McoTI-II protein with tags, recombinantly expressed as starting control (SGSDGGVCPKILKKCRRDSDCPGACICRGNGYCG; ends and bridges not checked; also: with tags (recombinant); UniProt P82409 1-34, looked up)
% trypsin inhibition, concentration dependence (in words) ([1]; Supplementary Figure S6E): An increase in % trypsin inhibition

Molecule: McoTI-II: stable cyclic peptide found in seeds of the plant Momordica cochinchinensis (cyclo(SGSDGGVCPKILKKCRRDSDCPGACICRGNGYCG); disulfide (positions not given here); ends not checked; also: three disulfides, pairing not given here; UniProt P82409 1-34, looked up)
trypsin inhibition range (in words) ([2]; McoTI-II purified from plant sources or chemically synthesized as a cyclic molecule): sub-nM range
trypsin inhibitory activity (in words) ([2]; natural McoTI-II): potent (sub-nM)

inhibition of trypsin activity on ZFR-AMC (fluorescence), 50 mM Tris-HCl pH 8.0, 50 mM NaCl, 5 mM CaCl2 [3]: 2.12 µM
Molecule: McoTI-II (Momordica cochinchinensis trypsin inhibitor-II), recombinant protein with tags (from UniProt P82409 1-34) (natural protein)

Molecule: CC(C)C[C@H](NC(=O)[C@H]1O[C@@H]1C(=O)O)C(=O)NCCCCN=C(N)N [E-64]
IC50 against papain (in words) [4]: nanomolar range
inhibition of papain proteolytic activity on BSA (in words) [5]: completely inhibit the proteolytic activity of papain with no digestion products observed on the gel
